We go through one compound from patent publication US20130303788A1, “METHOD OF PRODUCING BIPHENOLIC COMPOUND, NOVEL BIPHENYL COMPOUND AND SYNTHESIS METHOD THEREOF, AND PHARMACEUTICAL COMPOSITION FOR TREATING PARKINSON'S DISEASE” (Tzu Chi University, priority 2012, published 2013).

Test [1] deals with SH-SY5Y human neuroblastoma cells. Description: Effects on oxidative stress (TBHP or CHP), MTT assay. In kind it is cell-based. The following applies: 10 μM for 30 minutes, then CHP 300 μM for 3 hours; vs pathological control; FIG. 9. On the procedure:
3-(4,5-Dimethylthiazol-2-yl)-2,5-diphenyltetrazolium bromide (MTT) assay was conducted generally as follows. A MTT solution was added to culture of the cells in the respective well so that a MTT concentration of 0.5 mg/mL was reached, followed by cultivation for 4 hours. The liquid in the respective well was removed, and dimethylsulfoxide (DMSO) was added into the respective well to dissolve formazan dye. Absorbance of the mixture in the respective well at 570 nm (OD570) was measured using an OPTImax microplate reader (Molecular Devices).
The SH-SY5Y human neuroblastoma cells were respectively treated with products 1, 2, 3, 4, 5, 7, and 3,3′-diallyl-biphenyl-4,4′-diol (compound 55) (10 μM) for 30 minutes. 3,3′-diallyl-biphenyl-4,4′-diol (compound 55) was prepared from commercially available 4,4′-biphenol (compound 54) generally according to the method as described in Ablard, F. et al., Bioorg. Med. Chem. Lett. 2007, 17, 4428. Subsequently, the SH-SY5Y human neuroblastoma cells were exposed to cumene hydroperoxide (CHP) or tert-butyl hydroperoxide (TBHP) (300 μM, Riedel-de Haen) for 3 hours after the treatment with the respective biphenolic compound of formula (I).
Cell viability was evaluated as follows. The SH-SY5Y human neuroblastoma cells were subjected to the MTT assay as described in section 1 of General Procedures. The relative cell viability (%) was calculated by substituting the absorbance into the following formula:
where D=relative cell viability • E=OD570 of the pathological control, or the SH-SY5Y human neuroblastoma cells treated with the respective biphenolic compound of formula (I) • F=OD570 of the normal control The obtained data were subjected to the statistical analysis as described in section 5 of General Procedures.
(Formazan colour is commonly taken as a measure of viable cells.)

The test system of test [2] is excitotoxicity induced by excitatory amino acids. To be noted: Lin Yi-Ruu et al. (2006); cited from earlier work.
Test [3] deals with mouse model of PD (6-OHDA unilateral striatal lesion). Description: Beam walking test, incoordination induced by 6-OHDA. Type of test: in vivo, NMRI mice. As for the experimental part:
Product 1 was administered intraperitoneally to NMRI mice at a dose of 5 mg/kg. 30 minutes after the administration of product 1, the NMRI mice were subjected to 6-OHDA injection according to the method as described in section 2 of General Procedures.
NMRI mice into which the vehicle was injected, and which were not treated with product 1 before the injection of the vehicle, served as a sham operated control. NMRI mice that were subjected to 6-OHDA injection and that were not treated with product 1 before the 6-OHDA injection served as a pathological control.
The NMRI mice were subjected to the beam walking test as described in the following subsection 3 on Day 1 and Day 7 after the injection of 6-OHDA or the vehicle. The obtained data were subjected to the statistical analysis as described in section 5 of General Procedures.
NMRI mice were subjected to 6-OHDA injection according to the method as described in section 2 of General Procedures. On Day 7 after the 6-OHDA injection, product 1 was administered intraperitoneally to the NMRI mice at a dose of 5 mg/kg respectively for 7 and 14 consecutive days.
NMRI mice into which a vehicle (saline containing 0.02% ascorbic acid) was injected (generally according to the method as described in section 2 of General Procedures, except that 6-OHDA was not injected), and which were not treated with product 1 after the injection of the vehicle, served as a sham operated control. NMRI mice that were subjected to 6-OHDA injection and that were not treated with product 1 after the 6-OHDA injection served as a pathological control.
The NMRI mice were subjected to the beam walking test as described in the following subsection 3 on Day 14 or Day 21 after the injection of 6-OHDA or the vehicle. The obtained data were subjected to the statistical analysis as described in section 5 of General Procedures.
A beam walking test was conducted under proper conditions, e.g., silence and illumination, so as to evaluate coordination of the respective NMRI mouse. The respective NMRI mouse was placed at a starting point of a beam having a height of 50 cm from a supporting surface, equipped with an escape plateform at each end. […] Before the beam walking test, the respective mouse was trained to walk through the beam for 3 days so that the escape latency thereof was less than 20 seconds. The total travel distance was measured.

The subject of test [4] is TH (Tyrosine Hydroxylase). Description: TH expression level (TH immunohistochemistry) in 6-OHDA mouse model of PD. Type of test: in vivo, NMRI mice. On the procedure:
The respective NMRI mouse was deeply anaesthetized with thiopental (50 mg/kg, intraperitoneally). The respective NMRI mouse was perfused transcardially with a heparin solution (0.05% heparin in 0.1 M PBS), and was subsequently perfused with 100 mL of ice-cold fixative (4% paraformaldehyde in 0.1 M PBS). The brain of the respective NMRI mouse was removed and was postfixed in the same ice-cold fixative for 12 hours, followed by dehydration in 30% sucrose in 0.1 M PBS. The brain was frozen and was subjected to tissue slicing. Serial coronal sections (a thickness of 20 μm) were cut on a freezing microtome and were placed in PBS. The sections were later processed for free-floating TH or iNOS immunohistochemistry.
The sections were rinsed three times with PBS (30 minutes for each time), were treated with 3% H2O2/10% methanol in PBS for 30 minutes for quenching the endogenous peroxidase activity, and were rinsed three times with PBS. After preincubation with 0.5% normal goat serum (NGS)/0.2% Triton in PBS, the sections were incubated with a primary antibody (anti-TH antibody or anti-iNOS antibody, 1:5000, Novus Biologicals, Inc., Littleton, Colo., USA) in 0.5% NGS/PBS at 4° C. for 16-18 hours. After being rinsed three times with PBS, the sections were incubated with a biotinylated goat anti-rabbit IgG (1:200) in PBS for 1 hour. Subsequently, the sections were rinsed three times with PBS and were stained with 0.05% diaminobenzidine/0.03% H2O2 in PBS for 5 minutes. The respective section was placed on a gelatin-coated slide, dehydrated through ascending concentrations of alcohol, and covered with a slipcover for observation under a light microscope.
The obtained data were subjected to the statistical analysis as described in section 5 of General Procedures. TH expression level in the striatum was determined according to the method as described in section 4 of General Procedures.
TH expression level in the striatum and the substantia nigra (SN), and iNOS expression level in the striatum were determined according to the method as described in section 4 of General Procedures on Day 21 after the injection of 6-OHDA or the vehicle.
In addition, the optical density regarding the lesioned and unlesioned sites in the striatum and SN of the NMRI mice (e.g., the sham operated control, the pathological control, and the NMRI mice treated with product 1) was determined from the obtained photomicrographs illustrating TH expression level via ImageJ software (National Institutes of Health). The relative optical density was calculated using the following formula:
where J=relative optical density • K=optical density of the lesioned site • L=optical density of the unlesioned site

Consider `C=CCc1ccc(O)c(-c2ccc(O)c(CC=C)c2)c1` [product 1, 5,3′-Diallyl-biphenyl-2,4′-diol], for which the “prevention of cell death (relative cell viability) after exposure to CHP” value in test [1] is reported as “significantly prevented cell death”. Further, the “neuroprotective effects via anti-oxidative abilities and antagonist actions against excitotoxicity” value in test [2] was “able to exert neuroprotective effects”. The “14-day post-treatment compared to 7-day post-treatment, motor incoordination” value in test [3] (5 mg/kg i.p.) was “more effectively alleviating the motor incoordination”. In test [3] (5 mg/kg i.p. 30 minutes before 6-OHDA), the “duration of the effect of the pretreatment on motor incoordination” value was “at least 7 days”. Moreover, the “motor incoordination (beam walking), pretreatment” value in test [3] (5 mg/kg i.p. 30 minutes before 6-OHDA, Day 1 and Day 7 after 6-OHDA, FIGS. 18(A), 18(B)) was “significantly alleviated the motor incoordination”. Besides, in test [3] (5 mg/kg i.p. for 7 days starting Day 7 after 6-OHDA, tested Day 14, FIG. 19), the “motor incoordination (beam walking), 7-day post-treatment” value was “significantly alleviated the motor incoordination”. For the same compound, in test [3] (5 mg/kg i.p. for 14 days starting Day 7 after 6-OHDA, tested Day 21, FIG. 19), the “motor incoordination (beam walking), 14-day post-treatment” value was “significantly alleviated the motor incoordination”. Moreover, the “TH expression level in right (lesioned) striatum vs pathological control, subchronic treatment” value in test [4] (5 mg/kg i.p. for 14 consecutive days after 6-OHDA injection, FIG. 12) is on record as “significantly higher TH expression level”. Besides, the “loss of TH-ir fibers in the striatum, subchronic post-treatment” value in test [4] (i.p. 14 consecutive days starting Day 7, Day 21 after 6-OHDA, FIGS. 14, 15(A), 16) is recorded as “significantly alleviated the loss of TH-ir fibers”. In test [4] (i.p. 14 consecutive days starting Day 7, Day 21 after 6-OHDA, FIGS. 14, 15(B), 16), the “loss of TH-ir fibers in the substantia nigra (SN), subchronic post-treatment” value is given as “significantly alleviated the loss of TH-ir fibers”.
